Results as given in patent US6737383B1, “Herbicidal oxadiazolidines” (priority 1999, dated 2004).

Key:
Conditions in all cases: Preemergence
wild oat = assay: Test B pre/postemergence wild oat; assay type: in vivo, Avena fatua
In short: (§1)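 Herbicidal effect was estimated by eye on a ten-point control scale after plants spent twelve to sixteen days in a greenhouse following soil or foliar treatment. Foliar sprays targeted plants at one to four leaves; all doses were formulated in a non-phytotoxic solvent with surfactant.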

cocklebur = assay: Test B pre/postemergence cocklebur; assay type: in vivo, Xanthium strumarium
In short: as §1

sugar beet = assay: Test B pre/postemergence sugar beet; assay type: in vivo, Beta vulgaris
In short: as §1

velvetleaf = assay: Test B pre/postemergence velvetleaf; assay type: in vivo, Abutilon theophrasti
In short: as §1

purple nutsedge = assay: Test B pre/postemergence purple nutsedge; assay type: in vivo, Cyperus rotundus
In short: as §1

surinam grass = assay: Test B pre/postemergence surinam grass; assay type: in vivo, Brachiaria decumbens
In short: as §1

morningglory = assay: Test B pre/postemergence morningglory; assay type: in vivo, Ipomoea hederacea
In short: as §1

corn = assay: Test B pre/postemergence corn; assay type: in vivo, Zea mays
In short: as §1

wheat = assay: Test B pre/postemergence wheat; assay type: in vivo, Triticum aestivum
In short: as §1

pigweed = assay: Test B pre/postemergence pigweed; assay type: in vivo, Amaranthus retroflexus
In short: as §1

soybean = assay: Test B pre/postemergence soybean; assay type: in vivo, Glycine max
In short: as §1

bedstraw = assay: Test B pre/postemergence bedstraw; assay type: in vivo, Galium aparine
In short: as §1

crabgrass = assay: Test B pre/postemergence crabgrass; assay type: in vivo, Digitaria sanguinalis
In short: as §1

rape = assay: Test B pre/postemergence rape; assay type: in vivo, Brassica napus
In short: as §1

blackgrass = assay: Test B pre/postemergence blackgrass; assay type: in vivo, Alopecurus myosuroides
In short: as §1

giant foxtail = assay: Test B pre/postemergence giant foxtail; assay type: in vivo, Setaria faberii
In short: as §1

[1] = Rate 125 g/ha, scale of 0 to 10 where 0 is no effect and 10 is complete control
[2] = Rate 250 g/ha, scale 0 (no effect) to 10 (complete control)
[3] = Rate 500 g/ha, scale 0 to 10 (0 no effect, 10 complete control)
[4] = Rate 1000 g/ha, scale 0 to 10 (0 no effect, 10 complete control)
[5] = Rate 62 g/ha, scale of 0 to 10 where 0 is no effect and 10 is complete control
[6] = Rate 31 g/ha, visual rating, scale 0 to 10 (0 no effect, 10 complete control)

## COC(=O)C(c1ccccc1)n1c(=O)on(C(=O)N(c2ccccc2)C(C)C)c1=O (stereo not drawn) [Compound 723]
Wild oat; [1]
  Plant response rating, Wild oats: 0
Wild oat; [2]
  Wild oats plant response rating: 0
Wild oat; [3]
  Wild oats plant response rating: 0
Wild oat; [4]
  Plant response rating, Wild oats: 8
cocklebur; [1]
  Plant response rating, Cocklebur: 0
cocklebur; [2]
  Cocklebur plant response rating: 0
cocklebur; [3]
  Cocklebur plant response rating: 0
cocklebur; [4]
  Plant response rating, Cocklebur: 0
Sugar beet; [1]
  Plant response rating, Sugarbeets: 0
Sugar beet; [2]
  Sugarbeets plant response rating: 0
Sugar beet; [3]
  Sugarbeets plant response rating: 0
Sugar beet; [4]
  Plant response rating, Sugarbeets: 0
velvetleaf; [1]
  Plant response rating, Velvetleaf: 0
velvetleaf; [2]
  Velvetleaf plant response rating: 0
velvetleaf; [3]
  Velvetleaf plant response rating: 0
velvetleaf; [4]
  Plant response rating, Velvetleaf: 0
Purple nutsedge; [1]
  Plant response rating, Nutsedge: 0
Purple nutsedge; [2]
  Nutsedge plant response rating: 0
Purple nutsedge; [4]
  Plant response rating, Nutsedge: 0
Surinam grass; [1]
  Plant response rating, B. signalgrass: 0
Surinam grass; [2]
  B. signalgrass plant response rating: 2
Surinam grass; [3]
  B. signalgrass plant response rating: 2
Surinam grass; [4]
  Plant response rating, B. signalgrass: 6
morningglory; [1]
  Plant response rating, Morningglory: 0
morningglory; [2]
  Morningglory plant response rating: 0
morningglory; [3]
  Morningglory plant response rating: 0
morningglory; [4]
  Plant response rating, Morningglory: 0
corn; [1]
  Plant response rating, Corn: 0
corn; [2]
  Corn plant response rating: 0
corn; [3]
  Corn plant response rating: 0
corn; [4]
  Plant response rating, Corn: 0
wheat; [1]
  Plant response rating, Wheat: 0
wheat; [2]
  Wheat plant response rating: 0
wheat; [3]
  Wheat plant response rating: 0
wheat; [4]
  Plant response rating, Wheat: 0
pigweed; [1]
  Plant response rating, Redroot pigweed: 0
pigweed; [2]
  Redroot pigweed plant response rating: 0
pigweed; [3]
  Redroot pigweed plant response rating: 0
pigweed; [4]
  Plant response rating, Redroot pigweed: 5
soybean; [1]
  Plant response rating, Soybean: 0
soybean; [2]
  Soybean plant response rating: 0
soybean; [3]
  Soybean plant response rating: 0
soybean; [4]
  Plant response rating, Soybean: 0
bedstraw; [1]
  Plant response rating, Bedstraw: 0
bedstraw; [2]
  Bedstraw plant response rating: 0
bedstraw; [3]
  Bedstraw plant response rating: 0
bedstraw; [4]
  Plant response rating, Bedstraw: 0
crabgrass; [1]
  Plant response rating, Crabgrass: 2
crabgrass; [2]
  Crabgrass plant response rating: 2
crabgrass; [3]
  Crabgrass plant response rating: 9
crabgrass; [4]
  Plant response rating, Crabgrass: 9
rape; [1]
  Plant response rating, Rape: 0
rape; [2]
  Rape plant response rating: 0
rape; [3]
  Rape plant response rating: 0
rape; [4]
  Plant response rating, Rape: 2
blackgrass; [1]
  Plant response rating, Blackgrass: 0
blackgrass; [2]
  Blackgrass plant response rating: 0
blackgrass; [3]
  Blackgrass plant response rating: 2
blackgrass; [4]
  Plant response rating, Blackgrass: 6
Giant foxtail; [1]
  Plant response rating, Giant foxtail: 7
Giant foxtail; [2]
  Giant foxtail plant response rating: 9
Giant foxtail; [3]
  Giant foxtail plant response rating: 10
Giant foxtail; [4]
  Plant response rating, Giant foxtail: 10

## COC(CCl)n1c(=O)on(C(=O)N(c2ccc(Cl)cc2)C(C)C)c1=O (stereo not drawn) [Compound 725]
Wild oat; [5]
  Wild oats plant response rating: 0
Wild oat; [1]
  Plant response rating, Wild oats: 2
Wild oat; [2]
  Wild oats plant response rating: 4
Wild oat; [3]
  Wild oats plant response rating: 6
cocklebur; [5]
  Cocklebur plant response rating: 0
cocklebur; [1]
  Plant response rating, Cocklebur: 0
cocklebur; [2]
  Cocklebur plant response rating: 0
cocklebur; [3]
  Cocklebur plant response rating: 0
Sugar beet; [5]
  Sugarbeets plant response rating: 0
Sugar beet; [1]
  Plant response rating, Sugarbeets: 0
Sugar beet; [2]
  Sugarbeets plant response rating: 0
Sugar beet; [3]
  Sugarbeets plant response rating: 2
velvetleaf; [5]
  Velvetleaf plant response rating: 0
velvetleaf; [1]
  Plant response rating, Velvetleaf: 0
velvetleaf; [2]
  Velvetleaf plant response rating: 0
velvetleaf; [3]
  Velvetleaf plant response rating: 0
Purple nutsedge; [5]
  Nutsedge plant response rating: 0
Purple nutsedge; [1]
  Plant response rating, Nutsedge: 0
Purple nutsedge; [3]
  Nutsedge plant response rating: 0
Surinam grass; [5]
  B. signalgrass plant response rating: 0
Surinam grass; [1]
  Plant response rating, B. signalgrass: 3
Surinam grass; [2]
  B. signalgrass plant response rating: 4
Surinam grass; [3]
  B. signalgrass plant response rating: 4
morningglory; [5]
  Morningglory plant response rating: 1
morningglory; [1]
  Plant response rating, Morningglory: 1
morningglory; [2]
  Morningglory plant response rating: 1
morningglory; [3]
  Morningglory plant response rating: 3
corn; [5]
  Corn plant response rating: 0
corn; [1]
  Plant response rating, Corn: 0
corn; [2]
  Corn plant response rating: 0
corn; [3]
  Corn plant response rating: 0
wheat; [5]
  Wheat plant response rating: 0
wheat; [1]
  Plant response rating, Wheat: 0
wheat; [2]
  Wheat plant response rating: 0
wheat; [3]
  Wheat plant response rating: 0
pigweed; [5]
  Redroot pigweed plant response rating: 0
pigweed; [1]
  Plant response rating, Redroot pigweed: 0
pigweed; [2]
  Redroot pigweed plant response rating: 0
pigweed; [3]
  Redroot pigweed plant response rating: 3
soybean; [5]
  Soybean plant response rating: 0
soybean; [1]
  Plant response rating, Soybean: 0
soybean; [2]
  Soybean plant response rating: 0
soybean; [3]
  Soybean plant response rating: 0
bedstraw; [5]
  Bedstraw plant response rating: 0
bedstraw; [1]
  Plant response rating, Bedstraw: 0
bedstraw; [2]
  Bedstraw plant response rating: 0
bedstraw; [3]
  Bedstraw plant response rating: 0
crabgrass; [5]
  Crabgrass plant response rating: 6
crabgrass; [1]
  Plant response rating, Crabgrass: 6
crabgrass; [2]
  Crabgrass plant response rating: 8
crabgrass; [3]
  Crabgrass plant response rating: 8
rape; [5]
  Rape plant response rating: 0
rape; [1]
  Plant response rating, Rape: 0
rape; [2]
  Rape plant response rating: 0
rape; [3]
  Rape plant response rating: 0
blackgrass; [5]
  Blackgrass plant response rating: 2
blackgrass; [1]
  Plant response rating, Blackgrass: 4
blackgrass; [2]
  Blackgrass plant response rating: 7
blackgrass; [3]
  Blackgrass plant response rating: 7
Giant foxtail; [5]
  Giant foxtail plant response rating: 7
Giant foxtail; [1]
  Plant response rating, Giant foxtail: 8
Giant foxtail; [2]
  Giant foxtail plant response rating: 10
Giant foxtail; [3]
  Giant foxtail plant response rating: 10

## CC(=O)NCCn1c(=O)on(C(=O)N(c2ccc(F)cc2)C(C)C)c1=O [Compound 727]
Wild oat; [5]
  Wild oats plant response rating: 0
Wild oat; [1]
  Plant response rating, Wild oats: 3
Wild oat; [2]
  Wild oats plant response rating: 3
cocklebur; [6]
  Cocklebur plant response rating: 0
cocklebur; [5]
  Cocklebur plant response rating: 0
cocklebur; [1]
  Plant response rating, Cocklebur: 0
cocklebur; [2]
  Cocklebur plant response rating: 0
Sugar beet; [5]
  Sugarbeets plant response rating: 0
Sugar beet; [1]
  Plant response rating, Sugarbeets: 0
Sugar beet; [2]
  Sugarbeets plant response rating: 0
velvetleaf; [5]
  Velvetleaf plant response rating: 0
velvetleaf; [1]
  Plant response rating, Velvetleaf: 0
velvetleaf; [2]
  Velvetleaf plant response rating: 0
Purple nutsedge; [1]
  Plant response rating, Nutsedge: 0
Purple nutsedge; [2]
  Nutsedge plant response rating: 0
Surinam grass; [6]
  B. signalgrass plant response rating: 0
Surinam grass; [5]
  B. signalgrass plant response rating: 0
Surinam grass; [1]
  Plant response rating, B. signalgrass: 6
Surinam grass; [2]
  B. signalgrass plant response rating: 7
morningglory; [5]
  Morningglory plant response rating: 0
morningglory; [1]
  Plant response rating, Morningglory: 0
morningglory; [2]
  Morningglory plant response rating: 0
corn; [6]
  Corn plant response rating: 0
corn; [5]
  Corn plant response rating: 0
corn; [1]
  Plant response rating, Corn: 0
corn; [2]
  Corn plant response rating: 0
wheat; [5]
  Wheat plant response rating: 0
wheat; [1]
  Plant response rating, Wheat: 0
wheat; [2]
  Wheat plant response rating: 0
pigweed; [5]
  Redroot pigweed plant response rating: 0
pigweed; [1]
  Plant response rating, Redroot pigweed: 5
pigweed; [2]
  Redroot pigweed plant response rating: 5
soybean; [5]
  Soybean plant response rating: 0
soybean; [1]
  Plant response rating, Soybean: 0
soybean; [2]
  Soybean plant response rating: 0
bedstraw; [6]
  Bedstraw plant response rating: 0
bedstraw; [5]
  Bedstraw plant response rating: 0
bedstraw; [1]
  Plant response rating, Bedstraw: 0
bedstraw; [2]
  Bedstraw plant response rating: 0
crabgrass; [6]
  Crabgrass plant response rating: 3
crabgrass; [5]
  Crabgrass plant response rating: 3
crabgrass; [1]
  Plant response rating, Crabgrass: 8
crabgrass; [2]
  Crabgrass plant response rating: 9
rape; [5]
  Rape plant response rating: 0
rape; [1]
  Plant response rating, Rape: 0
rape; [2]
  Rape plant response rating: 1
blackgrass; [6]
  Blackgrass plant response rating: 0
blackgrass; [5]
  Blackgrass plant response rating: 0
blackgrass; [1]
  Plant response rating, Blackgrass: 7
blackgrass; [2]
  Blackgrass plant response rating: 8
Giant foxtail; [6]
  Giant foxtail plant response rating: 5
Giant foxtail; [5]
  Giant foxtail plant response rating: 7
Giant foxtail; [1]
  Plant response rating, Giant foxtail: 7
Giant foxtail; [2]
  Giant foxtail plant response rating: 10
